Laboratory results published in US20240279283A1, “CYCLIC PEPTIDE ANTIBIOTICS” (priority 2021, published 2024).
Bridge positions count the residues as written; N and C are the ends. Square brackets hold non-standard residues; d marks the D form. Peptide text beside a SMILES is read from it. Bip = N[C@@H](Cc1ccc(-c2ccccc2)cc1)C(=O)O; 1Nal = N[C@@H](Cc1cccc2ccccc12)C(=O)O; d1Nal = N[C@H](Cc1cccc2ccccc12)C(=O)O; dHis(π-Me) = Cn1cncc1C[C@@H](N)C(=O)O; His(π-Me) = Cn1cncc1C[C@H](N)C(=O)O; NMeY = CN[C@@H](Cc1ccc(O)cc1)C(=O)O; dNMeY = CN[C@H](Cc1ccc(O)cc1)C(=O)O; dAbu = CC[C@@H](N)C(=O)O; Abu = CC[C@H](N)C(=O)O

What was measured:
Format in all cases: cell-based
Conditions in all cases: LB broth, 5×10^5 CFU/ml, 37° C., 18 hours, scored by eye
E. coli BW25113 = experiment: Minimum Inhibitory Concentration (MIC) determination, E. coli BW25113; set-up: unit not given here
Experimental: (§1) MICs were determined by performing two-fold serial dilutions of peptides in LB broth to a final volume of 0.1 ml in round-bottom 96-well assay plates (Corning Life Sciences No 3788). Peptides were initially resuspended in 100% DMSO to 10 mM and subsequently diluted in LB medium to the appropriate concentration. Each well was inoculated with 5×10^5 CFU/ml of the screening stain and incubated at 37° C. without agitation for 18 hours. Plates were scored by eye, and the lowest compound concentration preventing visible growth was determined to be the MIC.

E. coli 25922 = experiment: Minimum Inhibitory Concentration (MIC) determination, E. coli 25922; set-up: unit not given here
Experimental: as §1

E. cloacae ATCC222 = experiment: Minimum Inhibitory Concentration (MIC) determination, E. cloacae ATCC222; set-up: unit not given here
Experimental: as §1

K. pneumoniae ATCC43816 = experiment: Minimum Inhibitory Concentration (MIC) determination, K. pneumoniae ATCC43816; set-up: unit not given here
Experimental: as §1

E. coli 25922 IMP = experiment: Minimum Inhibitory Concentration (MIC) determination, E. coli 25922 IMP
Experimental: as §1

Structure (SMILES) | MIC E. coli BW25113 WUXI::MIC (E. coli BW25113) | MIC E. coli 25922 WUXI::MIC (E. coli 25922) | MIC E. cloacae ATCC222 WUXI::MIC (E. cloacae ATCC222) | MIC K. pneumoniae ATCC43816 Wuxi::MIC (K. pneumoniae ATCC43816) | MIC E. coli 25922 IMP WUXI::MIC (E. coli 25922 IMP)
CC[C@@H]1NC(=O)[C@H](Cc2ccccc2)NC(=O)CSC[C@@H](C(=O)NCC(N)=O)NC(=O)[C@H](Cc2cncn2C)NC(=O)[C@H](CCCNC(=N)N)NC(=O)[C@H](Cc2cnc[nH]2)NC(=O)[C@H](Cc2ccc(O)cc2)N(C)C(=O)[C@H](CCCNC(=N)N)NC(=O)[C@H](CO)NC(=O)CNC(=O)[C@H](C)NC(=O)[C@H](Cc2cccc3ccccc23)NC1=O (stereo in doubt) [Compound 35] | 100 | 100 | 100 | 100 | 3.1
CC[C@H]1NC(=O)[C@@H](Cc2ccccc2)NC(=O)CSC[C@H](C(=O)NCC(N)=O)NC(=O)[C@@H](Cc2cncn2C)NC(=O)[C@@H](CCCNC(=N)N)NC(=O)[C@@H](Cc2c[nH]cn2)NC(=O)[C@@H](Cc2ccc(O)cc2)N(C)C(=O)[C@@H](CCCNC(=N)N)NC(=O)[C@@H](CO)NC(=O)[C@@H](CCCNC(=N)N)NC(=O)[C@@H](Cc2c[nH]cn2)NC(=O)[C@@H](Cc2cccc3ccccc23)NC1=O [Compound 28] ({CH2CO}-[dF][dAbu][d1Nal][dH][dR][dS][dR][dNMeY][dH][dR][dHis(π-Me)][dC]G-NH2; thioether N-12) | 6.3 | 3.1 | 0.2 | 3.1 | 0.002
CC[C@@H]1NC(=O)[C@H](Cc2ccccc2)NC(=O)CSC[C@@H](C(=O)NCC(N)=O)NC(=O)[C@H](Cc2cncn2C)NC(=O)[C@H](CCCNC(=N)N)NC(=O)[C@H](Cc2c[nH]cn2)NC(=O)[C@H](Cc2ccc(O)cc2)N(C)C(=O)[C@H](CCCNC(=N)N)NC(=O)[C@H](CO)NC(=O)[C@@H](CO)NC(=O)[C@H](Cc2c[nH]cn2)NC(=O)[C@H](Cc2cccc3ccccc23)NC1=O [Compound 27] ({CH2CO}-F[Abu][1Nal]H[dS]SR[NMeY]HR[His(π-Me)]CG-NH2; thioether N-12) | 13 | 3.1 | 0.39 | 13 | 0.002
CC[C@@H]1NC(=O)[C@H](CO)NC(=O)CSC[C@@H](C(=O)NCC(N)=O)NC(=O)[C@H](Cc2cncn2C)NC(=O)[C@H](CCCNC(=N)N)NC(=O)[C@H](Cc2c[nH]cn2)NC(=O)[C@H](Cc2ccc(O)cc2)N(C)C(=O)[C@H](CCCNC(=N)N)NC(=O)[C@H](CO)NC(=O)CNC(=O)[C@H](Cc2c[nH]cn2)NC(=O)[C@H](Cc2cccc3ccccc23)NC1=O [Compound 21, (3R,6S,9S,12S,15S,18S,21S,27S,30S, 33S,36S)-N-(2-amino-2-oxo-ethyl)-33-ethyl-9,18-bis(3-guanidinopropyl)-21,36-bis(hydroxymethyl)-15-[(4-hydroxyphenyl)methyl]-12,27-bis(1H-imidazol-4-ylmethyl)-16-methyl-6-[(3-methylimidazol-4-yl)methyl]-30-(1-naphthylmethyl)-5,8,11,14,17,20,23,26,29,32,35,38-dodecaoxo-1-thia-4,7,10,13,16,19,22,25,28,31,34,37-dodecazacyclononatriacontane-3-carboxamide] ({CH2CO}-S[Abu][1Nal]HGSR[NMeY]HR[His(π-Me)]CG-NH2; thioether N-12) | 50 | 50 | 3.1 | 25 | 0.063
CC[C@H](C)[C@@H]1NC(=O)[C@H]([C@@H](C)O)NC(=O)[C@H](Cc2cncn2C)NC(=O)[C@H](Cc2ccccc2)NC(=O)CSC[C@@H](C(=O)NCC(N)=O)NC(=O)[C@H](Cc2ccc(O)cc2)NC(=O)[C@H](Cc2ccc(Cl)cc2)NC(=O)[C@H](Cc2ccc(O)cc2)NC(=O)[C@H](CCCNC(=N)N)NC(=O)[C@H](Cc2ccccc2)NC(=O)C(C)(C)NC(=O)[C@H](CO)NC(=O)[C@H](CCCCN)NC(=O)[C@H](CCCNC(=N)N)NC1=O (mixture of isomers) [Compound 60] | 16 | 16 |  |  | 1
CC[C@H](C)[C@@H]1NC(=O)[C@H]([C@@H](C)O)NC(=O)[C@H](Cc2cncn2C)NC(=O)[C@H](Cc2ccccc2)NC(=O)CSC[C@@H](C(=O)NCC(N)=O)NC(=O)[C@H](Cc2ccc(O)cc2)NC(=O)[C@H](Cc2c[nH]c3ccccc23)NC(=O)[C@H](Cc2ccc(O)cc2)NC(=O)[C@H](CCCNC(=N)N)NC(=O)[C@H](Cc2ccccc2)NC(=O)C(C)(C)NC(=O)[C@H](CO)NC(=O)[C@H](CCCCN)NC(=O)[C@H](CCCNC(=N)N)NC1=O (racemic) [Compound 59] | 16 | 8 |  |  | 1
CC[C@H](C)[C@@H]1NC(=O)[C@H]([C@@H](C)O)NC(=O)[C@H](Cc2cncn2C)NC(=O)[C@H](Cc2ccccc2)NC(=O)CSC[C@@H](C(=O)NCC(N)=O)NC(=O)[C@H](Cc2ccc(O)cc2)NC(=O)[C@H](Cc2c[nH]c3ccccc23)NC(=O)[C@H](Cc2ccc(O)cc2)NC(=O)[C@H](CCCCN)NC(=O)[C@H](Cc2ccccc2)NC(=O)C(C)(C)NC(=O)[C@H](CO)NC(=O)[C@H](CCCCN)NC(=O)[C@H](CCCNC(=N)N)NC1=O (racemic) [Compound 61] | 16 | 16 |  |  | 1
CC[C@@H]1NC(=O)[C@H](Cc2ccccc2)NC(=O)CSC[C@@H](C(=O)NCC(N)=O)NC(=O)[C@H](Cc2cncn2C)NC(=O)[C@H](CCCNC(=N)N)NC(=O)[C@H](Cc2c[nH]cn2)NC(=O)[C@H](Cc2ccc(O)cc2)N(C)C(=O)[C@H](CCCNC(=N)N)NC(=O)[C@H](CO)NC(=O)CNC(=O)[C@H](Cc2c[nH]cn2)NC(=O)[C@H](Cc2ccc(-c3ccccc3)cc2)NC1=O [Compound 24] ({CH2CO}-F[Abu][Bip]HGSR[NMeY]HR[His(π-Me)]CG-NH2; thioether N-12) |  | 13 |  |  | 0.016
CC[C@@H]1NC(=O)[C@H](Cc2ccccc2)NC(=O)CSC[C@@H](C(=O)NCC(N)=O)NC(=O)[C@H](Cc2cncn2C)NC(=O)[C@H](CCCNC(=N)N)NC(=O)[C@H](Cc2c[nH]cn2)NC(=O)[C@H](Cc2ccc(O)cc2)NC(=O)[C@H](CCCNC(=N)N)NC(=O)[C@H](CO)NC(=O)CNC(=O)[C@H](Cc2c[nH]cn2)NC(=O)[C@H](Cc2cccc3ccccc23)NC1=O [Compound 32, (3R,6S,9S,12S,15S,18S,21S,27S,30S, 33S,36S)-N-(2-amino-2-oxo-ethyl)-36-benzyl-33-ethyl-9,18-bis(3-guanidinopropyl)-21-(hydroxymethyl)-15-[(4-hydroxyphenyl)methyl]-12,27-bis(1H-imidazol-4-ylmethyl)-6-[(3-methylimidazol-4-yl)methyl]-30-(1-naphthylmethyl)-5,8,11,14,17,20,23,26,29,32,35,38-dodecaoxo-1-thia-4,7,10,13,16,19,22,25,28,31,34,37-dodecazacyclononatriacontane-3-carboxamide] ({CH2CO}-F[Abu][1Nal]HGSRYHR[His(π-Me)]CG-NH2; thioether N-12) |  | 25 |  |  | 0.031
